Data reported in ChEMBL document CHEMBL1268893, “A practical deuterium-free NMR method for the rapid determination of 1-octanol/water partition coefficients of pharmaceutical agents” (Bioorg Med Chem Lett, 2010).

How the values were obtained:
[1] = Octanol-water partition coefficient, log P of the compound; assay type: physicochemical
[2] = Octanol-water partition coefficient, log P of the compound by deuterium-free NMR method; assay type: physicochemical
[3] = Octanol-water partition coefficient, log P of the compound at pH 7.0
[4] = Octanol-water partition coefficient, log P of the compound after partitioning between 0.1 M NaOH and 1-octanol by deuterium-free NMR method; assay type: physicochemical; settings: 1-octanol/0.1 M NaOH

SMILES | logP [1] | logP [2] | logD [3] | logP [4]
CC(=O)Nc1ccc(O)cc1 [ACETAMINOPHEN] | 0.33 | 0.29 |  | 
CC(=O)Oc1ccccc1C(=O)O [ASPIRIN] |  | 1.15 |  | 
CC[C@H]1OC(=O)[C@H](C)[C@@H](O[C@H]2C[C@@](C)(OC)[C@@H](O)[C@H](C)O2)[C@H](C)[C@@H](O[C@@H]2O[C@H](C)C[C@H](N(C)C)[C@H]2O)[C@](C)(O)C[C@@H](C)C(=O)[C@H](C)[C@@H](O)[C@]1(C)O [ERYTHROMYCIN] | 2.54 | 2.01 |  | 

Other lines, results leading:

logP [1] | logP [2] | logD [3] | logP [4] | SMILES
 | -0.36 | -0.68 |  | O=C1CN(/N=C/c2ccc([N+](=O)[O-])o2)C(=O)N1 [NITROFURANTOIN]
 | 1.45 |  |  | CCOc1ccc(NC(C)=O)cc1 [PHENACETIN]
0.88 |  |  | 0.9 | CCN(CC)CCOC(=O)c1ccc(N)cc1 [PROCAINE]
